Source: US20250012799A1, “SARS-COV-2 POLYPEPTIDES AND USES THEREOF” (IAMA FRANCE, priority 2021, published 2025)
Like-named read-outs stand apart in the source and are kept apart here.

Tests used:
[1] = test system: NKp44L membrane expression on A549: hu ACE-2 cells; type: cell-based, human; details: for Induction of NKp44L membrane expression: A549, individual peptides/pools of sub-pools no 8.2 and no 8.3; for induction of the expression of NKp44L (in words): A549: hu ACE-2 lung cell line
[2] = test system: NKp44L membrane expression on Calu-3 cells; type: cell-based, human; details: for Induction of NKp44L membrane expression: Calu-3, individual peptides/pools of sub-pools no 8.2 and no 8.3; for induction of the expression of NKp44L (in words): Calu-3 lung cell line

| Substance | Induction of NKp44L membrane expression ([1]; Experiment no 1) | Induction of NKp44L membrane expression ([1]; Experiment no 2) | Induction of NKp44L membrane expression ([1]; Experiment no 3) | Induction of NKp44L membrane expression ([2]; Experiment no 1) | Induction of NKp44L membrane expression ([2]; Experiment no 2) | Induction of NKp44L membrane expression ([2]; Experiment no 3) | induction of the expression of NKp44L (in words) [1] | induction of the expression of NKp44L (in words) [2] |
| --- | --- | --- | --- | --- | --- | --- | --- | --- |
| igvtqnvlyenqklianq [Spi228] | 75 | 82 | 89 | 91 | 103 | 117 |  |  |
| klianqfnsaigkiqdsl [Spi231] | 1308 | 1232 | 1199 | 2250 | 2406 | 2207 | induce the expression of NKp44L | induce the expression of NKp44L |
| nqfnsaigkiqdslssta [Spi232] | 101 | 127 | 148 | 421 | 301 | 412 |  |  |
| qmayrfngigvtqnvlye [Spi226] | 53 | 59 | 71 | 103 | 112 | 119 |  |  |
| qnvlyenqkliangfnsa [Spi229] | 1167 | 1021 | 993 | 2103 | 1889 | 1875 | induce the expression of NKp44L | induce the expression of NKp44L |
| rfngigvtqnvlyengkl [Spi227] | 1402 | 1517 | 1538 | 2507 | 2726 | 2592 | induce the expression of NKp44L | induce the expression of NKp44L |
| yenqklianqfnsaigki [Spi230] | 1202 | 1198 | 1195 | 2213 | 2403 | 2173 | induce the expression of NKp44L | induce the expression of NKp44L |
